Assay results taken from patent US7713965B2, “7-substituted 3-carboxy-oxadiazino-quinolone derivatives, their preparation and their application as anti-bacterials” (Vetoquinol SA, priority 2008, dated 2010).
In brackets after ≈: the same amount, converted by molar mass.

What was measured:
Assay type in all cases: cell-based
E. coli ATCC 25922 = assay: MIC determination by microdilution in liquid medium, E. coli ATCC 25922; conditions: Escherichia coli, ATCC25922
Escherichia coli = assay: MIC determination by microdilution in liquid medium, E coli
Streptococcus uberis = assay: MIC determination by microdilution in liquid medium, Str ube
[1] = system: Pseudomonas aeruginosa (s = susceptible); assay: MIC determination by microdilution in liquid medium, Pse aer s; conditions: susceptible strain
[2] = system: Bordetella bronchiseptica; assay: MIC determination by microdilution in liquid medium, Bor bron
[3] = system: Mannheimia haemolytica (r = resistant); assay: MIC determination by microdilution in liquid medium, Man hae r; conditions: resistant strain
[4] = system: Staphylococcus aureus (r = resistant); assay: MIC determination by microdilution in liquid medium, Sta aur r; conditions: read-out: MIC Sta aur r
[5] = system: Staphylococcus aureus (s = susceptible); assay: MIC determination by microdilution in liquid medium, Sta aur s; conditions: susceptible strain
E. faecalis ATCC 29212 = assay: MIC determination by microdilution in liquid medium, E. faecalis ATCC 29212; conditions: Enterococcus faecalis, ATCC29212, read-out: MIC E. fae-calis ATCC 29212
Clostridium perfringens = assay: microbe, parasite or virus in culture; conditions: read-out: MIC Clo per
Mycoplasma bovis = assay: MIC determination by microdilution in liquid medium, Myc bov; conditions: Mycoplasmopsis bovis
M. bovirhinis = assay: MIC determination by microdilution in liquid medium, M. bovirhinis; conditions: Mycoplasma
[6] = system: Mannheimia haemolytica (s = susceptible); assay: MIC determination by microdilution in liquid medium, Man hae s; conditions: susceptible strain
[7] = system: Pseudomonas aeruginosa (r = resistant); assay: MIC determination by microdilution in liquid medium, Pse aer r; conditions: read-out: MIC Pse aer r

Structure (SMILES) | MIC (E. coli ATCC 25922) | MIC (Escherichia coli) | MIC (Streptococcus uberis) | MIC [1] | MIC [2] | MIC [3] | MIC [4] | MIC [5] | MIC (E. faecalis ATCC 29212) | MIC (Clostridium perfringens) | MIC (Mycoplasma bovis) | MIC (M. bovirhinis) | MIC [6] | MIC [7]
CN1COc2c(N3CC[C@@H](NC(=O)C(F)(F)F)C3)c(F)cc3c(=O)c(C(=O)O)cn1c23 [Example 29, 8-Fluoro-3-methyl-6-oxo-9-[(R)-3-(2,2,2-trifluoro-acetylamino)-pyrrolidin-1-yl]-2,3-dihydro-6H-1-oxa-3,3a-diaza-phenalene-5-carboxylic acid] | 0.06 µg/mL (≈ 0.135 µM) | 0.06 µg/mL (≈ 0.135 µM) | 0.5 µg/mL (≈ 1.13 µM) | 0.25 µg/mL (≈ 0.563 µM) | > 1 µg/mL | 8 µg/mL (≈ 18 µM) | 8 µg/mL (≈ 18 µM) | 0.12 µg/mL (≈ 0.27 µM) | 1 to 2 µg/mL (≈ 2.25 to 4.5 µM) | 0.25 µg/mL (≈ 0.563 µM) | 0.5 µg/mL (≈ 1.13 µM) | 1 µg/mL (≈ 2.25 µM) | 0.03 µg/mL (≈ 0.0675 µM) | 4 µg/mL (≈ 9 µM)
CN1COc2c(N3C[C@@H](N)C(C)(C)C3)c(F)cc3c(=O)c(C(=O)O)cn1c23 [Example 34, 9-((S)-4-Amino-3,3-dimethyl-pyrrolidin-1-yl)-8-fluoro-3-methyl-6-oxo-2,3-dihydro-6H-1-oxa-3,3a-diaza-phenalene-5-carboxylic acid] | 0.03 µg/mL (≈ 0.0797 µM) | 0.03 µg/mL (≈ 0.0797 µM) | 0.12 µg/mL (≈ 0.319 µM) | 0.5 µg/mL (≈ 1.33 µM) | 0.5 µg/mL (≈ 1.33 µM) | 8 µg/mL (≈ 21.3 µM) | 2 µg/mL (≈ 5.31 µM) | < 0.03 µg/mL | 0.25 to 0.5 µg/mL (≈ 0.664 to 1.33 µM) | < 0.03 µg/mL | 0.5 µg/mL (≈ 1.33 µM) | 0.12 µg/mL (≈ 0.319 µM) | 0.03 µg/mL (≈ 0.0797 µM) | 8 µg/mL (≈ 21.3 µM)
CN1COc2c(N3CCC(C(O)c4nccs4)C3)c(F)cc3c(=O)c(C(=O)O)cn1c23 (centres unmarked) [Example 38, 8-Fluoro-9-[3-(hydroxy-thiazol-2-yl-methyl)-pyrrolidin-1-yl]-3-methyl-6-oxo-2,3-dihydro-6H-1-oxa-3,3a-diaza-phenalene-5-carboxylic acid] | 0.12 µg/mL (≈ 0.269 µM) | 0.12 µg/mL (≈ 0.269 µM) | < 0.03 µg/mL | 4 µg/mL (≈ 8.96 µM) | 1 µg/mL (≈ 2.24 µM) | 16 µg/mL (≈ 35.8 µM) | 2 µg/mL (≈ 4.48 µM) | 0.06 µg/mL (≈ 0.134 µM) | 0.06 µg/mL (≈ 0.134 µM) | < 0.03 µg/mL | 0.12 µg/mL (≈ 0.269 µM) | 0.25 µg/mL (≈ 0.56 µM) | 0.03 µg/mL (≈ 0.0672 µM) | 32 µg/mL (≈ 71.7 µM)
CN1COc2c(N3CCC(C(N)c4nccs4)C3)c(F)cc3c(=O)c(C(=O)O)cn1c23 (centres unmarked) [Example 39, 9-[3-(Amino-thiazol-2-yl-methyl)-pyrrolidin-1-yl]-8-fluoro-3-methyl-6-oxo-2,3-dihydro-6H-1-oxa-3,3a-diaza-phenalene-5-carboxylic acid] | 0.03 to 0.12 µg/mL (≈ 0.0673 to 0.269 µM) | 0.25 µg/mL (≈ 0.561 µM) | 0.12 µg/mL (≈ 0.269 µM) | 2 µg/mL (≈ 4.49 µM) | 0.5 µg/mL (≈ 1.12 µM) | 16 µg/mL (≈ 35.9 µM) | 2 µg/mL (≈ 4.49 µM) | ≤ 0.03 µg/mL | 0.12 µg/mL (≈ 0.269 µM) | ≤ 0.03 µg/mL | 0.12 µg/mL (≈ 0.269 µM) | 0.06 µg/mL (≈ 0.135 µM) | 0.03 µg/mL (≈ 0.0673 µM) | 16 µg/mL (≈ 35.9 µM)
